Experimental data: patent publication US6599706B1, “Recombinant PR-3 and assays employing the same” (Chiron Corporation, priority 1994, dated 2003)
“Also recorded” adds a separate entry of the source.

B1: PR-3: purified active recombinant human PR-3 serine protease produced from proPR-3 in Sf9 cells, activated with DPPI (protein)
chain: MAHRPPSPALASVLLALLLSGAARAAEIVGGHEAQPHSRPYMASLQMRGNPGSHFCGGTLIHPSFVLTAAHCLRDIPQRLVNVVLGAHNVRTQEPTQQHFSVAQVFLNNYDAENKLNDILLIQLSSPANLSASVATVQLPQQDQPVPHGTQCLAMGWGRVGAHDPPAQVLQELNVTVVTFFCRPHNICTFVPRRKAGICFGDSGGPLICDGIIQGIDSFVIWGCATRLFPDFFTRVALYVDWIRSTLRRVEAKGRP

Assays:
[1] = biological target: T1, TNFα convertase/PR-3 (purified native PR-3) (Homo sapiens, UniProt P24158); assay: Colorimetric Boc-Ala-ONp assay for convertase inhibition; format: biochemical; conditions: 95 μM
T1 construct: from tissue; host or cells: human blood neutrophils
T1 sequence (P24158 28-248): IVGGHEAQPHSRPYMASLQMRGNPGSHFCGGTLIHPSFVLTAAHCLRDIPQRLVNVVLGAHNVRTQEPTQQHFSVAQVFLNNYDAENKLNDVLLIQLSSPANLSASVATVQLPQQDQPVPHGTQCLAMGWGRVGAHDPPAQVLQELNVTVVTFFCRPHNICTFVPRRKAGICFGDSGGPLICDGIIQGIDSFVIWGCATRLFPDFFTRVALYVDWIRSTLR
Procedure: TNFα convertase inhibition can also be measured by a colorimetric assay. In this type of assay, the actual activity of TNFα convertase is measured directly using a colorimetric TNFα convertase substrate. […] One such substrate is Boc-Ala-ONp (Bachem Bioscience, Inc., Philadelphia, Pa.). Other potentially useful substrates can be predicted from the structure of TNFα convertase and other serine proteases. Although the example herein uses purified native PR-3 as the TNFα convertase, it is contemplated that recombinant PR-3 or other TNFα convertases can be used in this assay as well.
Peptide diphenyl phosphonate inhibitors were synthesized and stored as lyophilized solids as described in Oleksyszyn and Powers, Biochem 30:485-493 (1991). Inhibitor solutions (10 mg/ml) were prepared in 100% dimethyl sulfoxide (DMSO) and diluted into aqueous buffers upon initiation of the experiments. 3,4, dichloro-isocoumarin was purchased from CalBiochem. Purified PR-3 (10 μl, 0.1 mg/ml) was mixed with varying concentrations of protease inhibitor ([…]) in 20 mM sodium phosphate buffer, pH 7.0, containing 0.1 M sodium chloride. Aliquots (40 μl) were removed at selected times and diluted 1/10 into a colorimetric assay for convertase, containing 0.5-1 mM Boc-Ala-ONp (prepared fresh from a 50 mM stock in 100% methanol) in 0.02 M sodium phosphate buffer, pH 7.0, 0.1 M sodium chloride. The increase in absorbance was monitored at 347 nm on a Hewlett Packard 8450A spectrophotometer, and using an extinction coefficient of 5.5×10^3 M^−1cm^−1 to calculate units of enzyme activity.
The peptide diphenyl phosphonates were tested in the colorimetric assay described in Example 3, for inhibition of TNFα convertase/PR-3 activity.

mice = assay: Toxicity of DCI/oil injected into mice; format: in vivo, mouse; conditions: injection of DCI/oil into mice
From the text: (§1) This represented a maximal tolerated dose of DCI that could be administered.

[2] = biological target: T2, TNFα convertase from HL60 cells (Homo sapiens, UniProt P24158); assay: 35S-labelled 26 kD TNFα in vitro transcription/translation autoradiographic convertase assay with HL60 convertase (P-30 fraction); format: biochemical; conditions: 100 pg/ml; 30° C., 1 hour; SDS-PAGE autoradiography
T2 construct: solution containing convertase activity partially purified from uninduced HL60 cells; endogenous in cells
T2 sequence (P24158 28-248): T1 sequence (P24158 28-248)
From the text: A preferred assay procedure consists of in vitro transcription/translation to produce the 26 kD molecule, followed by treatment with convertase in the presence or absence of compounds being tested for convertase inhibitory activity. The procedure entails in vitro transcription/translation of the TNFα cDNA present in the pGEM vector. Thus, the sequence was removed from pB11 by Pst I digestion and was inserted into the Pst I site of pGEM-3 (obtainable from Promega Biotec, Madison Wis.). The resulting plasmid, termed pGEM-TNFα14, was amplified in E. coli using established techniques, and plasmid DNA was prepared according to the procedure of Birnboim and Doly, described above. Plasmid DNA was transcribed in vitro by linearizing it with Hind III, and the linearized plasmid templates were used to prepare capped transcripts with T7 RNA polymerase and an in vitro transcription kit supplied by Promega Biotec (Madison, Wis.).
The mRNA produced above was translated in vitro in the presence of ^35S-cysteine to produce ^35S-cysteine-labelled 26 kD TNFα. A rabbit reticulocyte lysate translation kit was used, also supplied by Promega Biotec, and the conditions recommended by the manufacturer were followed.
^35S-cysteine-labelled 26 kD TNFα was used to assay for convertase inhibitors as follows. 25 μl of in vitro translated material was combined with 250 μl of solution containing convertase activity partially purified from uninduced HL60 cells, plus compounds to be assayed for inhibitory activity. The convertase was produced by harvesting 2×10^9 HL60 cells, disrupting the cells, and isolating S-1 (supernatant fluid from a 100,000 ×g centrifugation) and P-30 (pellet from a 30,000×g centrifugation) fractions totalling 18 and 6 ml, respectively. 250 μl of the P-30 fraction was used, although the S-1 fraction may also be used. The assay was carried out at 30° C. for 1 hour, essentially as described above. Next, the reaction mixture was immunoprecipitated with rabbit anti-human TNFα polyclonal antisera (produced from TNFα made in E. coli) and protein A Sepharose, pelleted and washed. […]

[3] = Stability and formulation studies in corn oil; format: physicochemical; conditions: dissolved in corn oil
From the text: as §1

[4] = tested on: IL-6 release from mouse macrophages; assay: LPS-induced IL-6 secretion by adherent peritoneal macrophages (B9 bioassay); format: cell-based
Procedure: (§2) Release of TNFα by macrophages after stimulation by LPS is a major source of TNFα in the host. In these studies peritoneal macrophages were purified by adhesion, cultured in 24 well plates, and LPS was added to induce secretion of TNFα. […] DCI was then added in dimethyl sulfoxide vehicle to cultures. The control cultures had DMSO alone added in equivalent concentrations. Supernatants were collected and assayed for TNFα and IL-6. […] [table]

serum IL-6 = assay: Serum IL-6 in mice injected with a lethal dose of LPS; format: in vivo, mouse; conditions: DCI injected 1 hour before lethal LPS dose
From the text: (§3) The kinetics of induction TNFα and IL-6 in mice injected with a lethal dose of LPS was studied. […] Also, there was a delayed increase in TNFα measured up to the 6-hour time point. This was true for both immunoreactive mouse TNFα measured by ELISA and bioactive YNFα measured by lysis of L929 cells. IL-6 levels were not reduced by this therapy.

serum TNFα = assay: Serum TNFα in mice injected with a lethal dose of LPS; format: in vivo, mouse; conditions: DCI injected 1 hour before lethal LPS dose; ELISA and L929 lysis
From the text: as §3

[5] = biological target: T3, purified native PR-3 from human neutrophils (Homo sapiens, UniProt P24158); assay: 35S-labelled 26 kD TNFα autoradiographic convertase assay with purified native PR-3; format: biochemical; conditions: 45 μM; PR-3 0.3 μg/ml preincubated 30 minutes
T3 construct: from tissue; host or cells: human blood neutrophils
T3 sequence (P24158 28-248): T1 sequence (P24158 28-248)
Procedure: ^35S-cysteine-labelled 26 kD TNFα was used to assay for convertase inhibitors as follows. 25 μl of in vitro translated material was combined with 250 μl of solution containing convertase activity partially purified from uninduced HL60 cells, plus compounds to be assayed for inhibitory activity. The convertase was produced by harvesting 2×10^9 HL60 cells, disrupting the cells, and isolating S-1 (supernatant fluid from a 100,000 ×g centrifugation) and P-30 (pellet from a 30,000×g centrifugation) fractions totalling 18 and 6 ml, respectively. 250 μl of the P-30 fraction was used, although the S-1 fraction may also be used. The assay was carried out at 30° C. for 1 hour, essentially as described above. Next, the reaction mixture was immunoprecipitated with rabbit anti-human TNFα polyclonal antisera (produced from TNFα made in E. coli) and protein A Sepharose, pelleted and washed. The bound protein was eluted and electrophoresed using SDS-PAGE. The gel was fixed in 40% methanol, 10% acetic acid, soaked in Enlightening (Dupont), dried, and exposed to X-ray film which was subsequently developed.
The above assay was also used with purified native PR-3 from human neutrophils to test a variety of proteinase inhibitors for their ability to inhibit TNFα convertase activity, as shown in FIG. 5. Purified PR-3 (0.3 μg/ml) was preincubated for 30 minutes with the following inhibitors prior to addition of ^35S-labelled 26 kD-TNFα, and then assayed as described above: DCI (45 μM), α-2-macroglobulin (1 mg/ml), PMSF (20 μM), leupeptin (2 μg/ml), EDTA (10 mM), or pepstatin (2 μg/ml).

PR-3 = biological target: T4, PR-3 (Homo sapiens, UniProt P24158); assay: Inhibition of PR-3, summary statement of the assays shown below; format: biochemical
T4 sequence (P24158 28-248): T1 sequence (P24158 28-248)
From the text: As shown below, PR-3 is inhibited by peptide diphenyl phosphonate inhibitors, elastinal, and dichloro-isocoumarin (DCI). The peptide diphenyl phosphonate inhibitors include Boc-Val-Pro-Val-p(OPh)2 and Boc-Ala-Pro-Val-p(OPh)2 (BOC-butoxycarbonyl). […] “Boc” means N-tert-butoxycarbonyl and “p(OPh)2” represents the diphenyl phosphonate moiety, wherein the formula—COOH group is replaced with P(=0)-(O-phenyl)2. See Oleksyszyn et al., Biochem 30:485 (1991). It will be appreciated that other peptide diphenyl phosphonate molecules may inhibit PR-3. Potential inhibitors may be constructed using the procedures shown in Oleksyszyn et al., supra, using small aliphatic peptides, for an example. Once the potential inhibitors are made, they may be tested in the assays shown below.

[6] = tested on: TNFα release from mouse macrophages; assay: LPS-induced TNFα secretion by adherent peritoneal macrophages (ELISA); format: cell-based
Procedure: as §2

mice injected with LPS = assay: Survival of mice injected with a lethal dose of LPS; format: in vivo, mouse
Procedure: The effect of DCI on survival of mice injected with a dose of LPS that results in 100% death of animals by 24 hours was also investigated.

[7] = Enzymatic activity of purified recombinant PR-3 on Boc-Ala-ONP; format: biochemical, human
Procedure: In order to generate therapeutic-grade PR-3, the Mono-S purified recombinant PR-3 (obtained as described in Example 16) was subjected to size-exclusion chromatography. 0.8 mg of protein from the Mono-S pool was concentrated to 2 mg/ml by Amicon YM10 ultrafiltration and loaded onto a S-300 HR column (1.6×60 cm. Pharmacia Biotechnology, Inc., NJ) and chromatographed with a mobile phase of PBS containing 0.04% Triton X-100. Fractions enriched in PR-3 were detected by assaying for enzymatic activity (Boc-Ala-ONP assay) and analyzing on SDS-PAGE with Coomassie blue staining. A single band of 28 kD was observed. The PR-3 eluted with a retention time correlating to an apparent molecular mass of 35 kD as compared to BSA and chymotrypsinogen A chromatographed in the same buffer. This process produced PR-3 that was ≧95% pure with an overall recovery of about 25% and a lipopolysaccharide content of ≦about 10 ng per mg of protein as measured using an Limulus Amoebocyte Lysate Assay (Associates of Cape Cod, Inc., Woods Hole, Mass.). The purified enzyme has a specific activity of approximately 30 units per mg (where a unit is defined as 1 micromole of product produced from cleavage of Boc-Ala-ONP permin. at 25° C., pH 7.5) and a Kcat of approximately 12 per second.

[8] = Storage stability of active recombinant PR-3; format: physicochemical; conditions: 4° C.; phosphate buffer pH 7.0 with 0.1% Triton X-100, NaCl eluate
Procedure: The proPR-3 was purified as described above through the Mono-S-Sepharose step and the DPPI activation. At the end of the activation reaction, the PR-3 was diluted 3-fold using deionized water and loaded onto a Pharmacia Mono-S column, previously equilibrated in loading buffer B (10 mM sodium phosphate buffer, pH 7.0, containing 0.1% (v/v) Triton X-100). After washing the column with three bed volumes of loading buffer B, the column was eluted with a 20-minute, 0-0.8 M sodium chloride gradient at 1 ml/min flow rate. PR-3 eluted as the only major peak of protein in the gradient. PR-3 activity was measured across the column by diluting 10 μl of each fraction into 100 mM sodium phosphate buffer containing 10% acetonitrile and 0.5 mM Boc-Ala-ONp. The absorbance at 402 nm of each assay sample was measured after approximately 10 min. Fractions containing activated PR-3 were pooled and stored at 4° C. […] The active PR-3 was stable over 1 month at 4° C. under these conditions

[9] = LPS-stimulated peritoneal macrophages, versus DMSO vehicle

Row | Molecule | inhibition at 95 µM [1] [%] | LD 50% (mice) [mg/mL] | inhibition of the convertase (conversion of 26 kD TNFα) [2] | stability [3] | IL-6 ([4]; DCI 20 μg/ml, macrophages 10^6/ml with LPS, 3 hours, B9 bioassay) [pg/mL] | IL-6 response [4, 9] | IL-6 levels (serum IL-6) | serum TNFα (serum TNFα) | inhibition of TNFα convertase activity of purified PR-3 [5] | inhibition of PR-3 (PR-3) | TNFα ([6]; DCI 20 μg/ml, macrophages 10^6/ml with LPS, 3 hours, ELISA) [ng/mL] | TNFα secretion [6, 9] | dose response of survival effect (mice injected with LPS; 0.75 mg of DCI compared with 0.5 mg) | survival (mice injected with LPS; prophylactic DCI, LPS dose giving 100% death by 24 hours) | Kcat ([7]; Boc-Ala-ONP) | specific activity ([7]; unit = 1 micromole product per min at 25° C., pH 7.5) | stability on storage [8]
1 | O=c1oc(Cl)c(Cl)c2ccccc12 [DCI, 3,4 dichloroisocoumarin] | 100 | 1 | inhibit the convertase | stable and retained serine protease inhibitor activity | 189 | not significantly altered | not reduced | marked inhibition; also recorded: decreased | significant inhibitory activity | inhibited | 0.05 | markedly suppressed | more effective than 0.5 mg | prolong survival | – | – | –
2 | B1 | – | – | – | – | – | – | – | – | – | – | – | – | – | – | approximately 12 per second | approximately 30 units per mg | over 1 month
